Test results from patent US8642612B2, “Nicotinic desensitizers and methods of selecting, testing, and using them” (Potomac Pharmaceuticals, Inc., priority 2006, dated 2014).
Like-named read-outs stand apart in the source and are kept apart here.

Experiments:
[1] = cited from earlier work
rat α3β4 nAChRs [2] = target: T1, rat α3β4 nAChRs (Rattus norvegicus, UniProt P04757+P12392); experiment: Inhibition of nicotine-stimulated 86Rb+ efflux, cells expressing rat α3β4 nAChRs; format: cell-based
T1 construct: expressed in transfected cells; the efflux text says only stably transfected cells
Protocol: (§1) In brief, cells were plated into 24-well plates coated with poly-D-lysine. […] The cells were then incubated in growth medium (0.5 ml/well) containing ^86Rb^+ (2 μCi/ml) for 4 hour at 37° C. The loading mixture was then aspirated, and the cells were washed four times with 1 ml buffer (15 mM HEPES, 140 mM NaCl, 2 mM KCl, 1 mM MgSO4, 1.8 mM CaCl2, 11 mM Glucose, pH 7.4). One ml of buffer with or without compounds to be tested was then added to each well. After incubation for 2 min, the assay buffer was collected for measurements of ^86Rb^+ released from the cells. Cells were then lysed by adding 1 ml of 100 mM NaOH to each well, and the lysate was collected for determination of the amount of ^86Rb^+ that was in the cells at the end of the efflux assay. Radioactivity of assay samples and lysates was measured by liquid scintillation counting. Total loading (cpm) was calculated as the sum of the assay sample and the lysate of each well. The amount of ^86Rb^+ efflux was expressed as a percentage of […] loaded. […] IC50 values were determined by nonlinear least-squares regression analyses (GraphPad, San Diego, Calif.).

rat α4β2 nAChRs [3] = target: T2, rat α4β2 nAChRs (Rattus norvegicus, UniProt P09483+P12390); conditions: 100 pM [3H]EB; published previously (Xiao and Kellar, 2004); cited from earlier work
T2 construct: expressed in transfected cells; host or cells: HEK cells (membrane homogenates)

rat α3β4 nAChRs [4] = target: T1, rat α3β4 nAChRs; conditions: 100 pM [3H]EB; published previously (Xiao and Kellar, 2004); cited from earlier work
[5] = target: native nAChRs from rat forebrain (Rattus norvegicus, UniProt P09483+P12390); conditions: read-out: Ki Forebrain (rat); 100 pM [3H]EB; published previously (Xiao and Kellar, 2004); cited from earlier work
rat α4β2 nAChRs [6] = target: T2, rat α4β2 nAChRs; experiment: [3H]epibatidine competition binding, rat α4β2 nAChRs expressed in HEK cells
Protocol: (§2) Briefly, cultured cells at >80% confluence were removed from their flasks (80 cm^2) with a disposable cell scraper and placed in 10 ml of 50 mM Tris HCl buffer (pH 7.4, 4° C.). The cell suspension was centrifuged at 10,000×g for 5 min and the pellet was collected. For cells treated chronically with nicotinic agonists during culturing, the pellet was washed two more times by centrifugation in fresh buffer to remove residual drug. […] Bound and free ligands were separated by vacuum filtration through Whatman GF/C filters treated with 0.5% polyethylenimine. The filter-retained radioactivity was measured by liquid scintillation counting. Specific binding was defined as the difference between total binding and nonspecific binding. Data from saturation and competition binding assays were analyzed using Prism 4 (GraphPad Software, San Diego, Calif.).
(§3) All ligand binding assays were carried out using rat or human nAChRs heterologously expressed in human cells or in native rat brain tissues.

rat α3β4 nAChRs [7] = target: T1, rat α3β4 nAChRs; experiment: [3H]epibatidine competition binding, rat α3β4 nAChRs expressed in HEK cells
Protocol: as §2, with “drug. The cell pellet was then homogenized in 10 ml buffer with a polytron homogenizer (Model PT2100, 12 mm aggregate, 26,000 rpm, 20 seconds) and centrifuged at 36,000 g for 10 min at 4° C. The membrane pellet was resuspended in fresh buffer, and aliquots of the membrane preparation equivalent to 30 to 200 μg protein were used for binding assays.” for “drug.”
as §3

human α4β2 nAChRs [8] = target: T3, human α4β2 nAChRs (Homo sapiens, UniProt P17787+P43681); format: cell-based; conditions: stimulation of 86Rb+ efflux
T3 construct: expressed in transfected cells; the efflux text says only stably transfected cells
Protocol: as §1
(§4) The agonist activities of ligands on nAChRs were assessed by measuring agonist-stimulated ^86Rb^+ efflux from stably transfected cells.

rat α3β4 nAChRs [9] = target: T1, rat α3β4 nAChRs; format: cell-based; conditions: stimulation of 86Rb+ efflux
Protocol: as §1, §4

human α4β2 nAChRs [10] = target: T3, human α4β2 nAChRs; experiment: Inhibition of nicotine-stimulated 86Rb+ efflux, cells expressing human α4β2 nAChRs; format: cell-based
Protocol: as §1

[11] = cited from earlier work; remark: listed apart in the source
[12] = example tables, species not given, read-out: Equilibrium binding affinity (Ki, nM) α4β2
[13] = example tables, species not given, read-out: Equilibrium binding affinity (Ki, nM) α3β4
[14] = 10 min pretreatment before nicotine, read-out: Desensitization Potency (IC50(D,10 min), nM) α4β2
[15] = applied simultaneously with nicotine, read-out: Acute Antagonist Potency (IC50(A), nM) α4β2
[16] = 10 min pretreatment before nicotine, read-out: Desensitization Potency (IC50(D,10 min), nM) α3β4
[17] = read-out: Acute Antagonist Potency (IC50(A), nM) α3β4
[18] = applied simultaneously with nicotine, read-out: Acute Antagonist Potency (IC50(A), nM) α3β4
[19] = Acute Antagonist Potency (IC50(A), nM) α4β2, applied simultaneously with nicotine
[20] = Desensitization Potency (IC50(D,10 min), nM) α4β2, 10 min pretreatment before nicotine
[21] = Acute Antagonist Potency (IC50(A), nM) α3β4, applied simultaneously with nicotine
[22] = Desensitization Potency (IC50(D,10 min), nM) α3β4, 10 min pretreatment before nicotine

Row | SMILES | Ki (rat α4β2 nAChRs [6]; [12]) [nM] | Ki (rat α3β4 nAChRs [7]; [13]) [nM] | Agonist Activity α4β2 (human α4β2 nAChRs [8]) | Agonist Activity α3β4 (rat α3β4 nAChRs [9]) | IC50 (human α4β2 nAChRs [10]; [14]) [nM] | IC50 (human α4β2 nAChRs [10]; [15]) [nM] | IC50 (rat α3β4 nAChRs [2]; [16]) [nM] | IC50 (rat α3β4 nAChRs [2]; [18]) [nM] | IC50 (human α4β2 nAChRs [10]; [19]) [nM] | IC50 (human α4β2 nAChRs [10]; [20]) [nM] | IC50 (rat α3β4 nAChRs [2]; [21]) [nM] | IC50 (rat α3β4 nAChRs [2]; [22]) [nM] | further results
1 | CN1CCCC1c1cccnc1 (single isomer, unassigned; (-)) [(−)-Nicotine, nicotine] | – | – | – | – | – | – | – | – | – | – | – | – | t1/2 in vivo [1]: > 1 h
2 | CO[C@H]1CC=C2CCN3CCC4=C(CC(=O)OC4)[C@]23C1 [DHβE, dihydro-β-erythroidine] | – | – | – | – | – | – | – | – | – | – | – | – | IC50 (rat α3β4 nAChRs [2]; added simultaneously with 100 μM nicotine, mean ± SEM of 3 to 7 experiments, read-out: IC50 α3β4 nAChRs, 0 min Pretreatment): 160000 nM; IC50 (rat α3β4 nAChRs [2]; read-out: IC50 α3β4 nAChRs, 10 min Pretreatment, 10 min preincubation, then 100 μM nicotine, mean ± SEM of 3 to 7 experiments): 130000 nM; Ki (rat α4β2 nAChRs [3]): 0.6 ± 0.07 µM; Ki (rat α3β4 nAChRs [4]): 110 µM; Ki [5]: 0.13 ± 0.05 µM
3 | Cc1cc2n(c(=O)c1)CC1CNCC2C1 (stereo not shown) [SKC-2-150] | 1.9 | 6700 | Not detected | Not detected | 250 | > 10000 | > 10000 | – | – | – | – | – | IC50 (rat α3β4 nAChRs [2]; [17]): > 10000 nM
4 | O=c1cc(CO)cc2n1CC1CNCC2C1 (stereo not shown) [SKC-2-203] | 11 | 13000 | Not detected | Not detected | 600 | > 10000 | > 10000 | – | – | – | – | – | IC50 (rat α3β4 nAChRs [2]; [17]): > 10000 nM
5 | CNc1ccccc1C(=O)OCC#Cc1cncc(OC[C@@H]2CCN2)c1 [Sazetidine-B] | – | – | Not detected | Not detected | 30 | > 10000 | 6000 | > 10000 | – | – | – | – | Ki (rat α4β2 nAChRs [6]): 0.22 nM; Ki (rat α3β4 nAChRs [7]): 1300 nM
6 | C#Cc1cncc(OC[C@@H]2CCCN2C)c1 [ZW-87] | 1.6 | 6800 | Not detected | Not detected | – | – | – | – | > 10000 | 50 | > 10000 | > 10000 | –
7 | CN1CCC[C@H]1COc1cncc(C#CC(C)(C)O)c1 [ZW-88] | 2.9 | – | Not detected | Not detected | – | – | – | – | > 10000 | 890 | > 10000 | > 10000 | Ki (rat α3β4 nAChRs [7]): 61000 nM
8 | CN1CCC[C@H]1COc1cncc(C#CCO)c1 [ZW-89] | 0.93 | 23000 | Not detected | Not detected | – | – | – | – | > 10000 | 180 | > 10000 | > 10000 | –
9 | CN1CCC[C@H]1COc1cncc(CCCCCCO)c1 [ZW-91] | – | – | Not detected | Not detected | – | – | – | – | > 10000 | 1000 | > 10000 | > 10000 | –
10 | CN1CCC[C@H]1COc1cncc(C#CCCCCCCCCO)c1 [ZW-93] | 6.1 | 66000 | Not detected | Not detected | – | – | – | – | 7400 | 460 | 4600 | 3800 | –
11 | CN1CCC[C@H]1COc1cncc(C#CCNC(=O)OC(C)(C)C)c1 [ZW-97] | – | – | Not detected | Not detected | 22 | > 10000 | 6900 | > 10000 | – | – | – | – | Ki (rat α4β2 nAChRs [6]): 1.4 nM; Ki (rat α3β4 nAChRs [7]): 75000 nM
12 | CN1CCC[C@H]1COc1cncc(C#Cc2ccccc2)c1 [ZW-98] | 0.51 | 8100 | Not detected | Not detected | 170 | > 10000 | 5300 | > 10000 | – | – | – | – | –
13 | CCCCC#Cc1cncc(OC[C@@H]2CCCN2C)c1 [ZW-100] | 1.4 | 40000 | Not detected | Not detected | 190 | > 10000 | 3300 | > 10000 | – | – | – | – | –
14 | CN1CCC[C@H]1COc1cncc(C#CCCCCO)c1 [ZW-101] | – | – | Not detected | Not detected | 160 | > 10000 | 2500 | > 10000 | – | – | – | – | Ki (rat α4β2 nAChRs [6]): 0.67 nM; Ki (rat α3β4 nAChRs [7]): 16000 nM
15 | FCCCCC#Cc1cncc(OC[C@@H]2CCCN2)c1 [ZW-102] | 0.91 | 7600 | Not detected | Not detected | – | – | – | – | > 10000 | 120 | > 10000 | 5400 | –
16 | FCCCCC#Cc1cncc(OC[C@@H]2CCN2)c1 [ZW-104] | – | 5500 | Not detected | Not detected | – | – | – | – | > 10000 | 5 | 9400 | 5700 | Ki (rat α4β2 nAChRs [6]): 0.21 nM
17 | CN1CCC[C@H]1COc1cncc(C#CCCCCBr)c1 [ZW-109] | – | – | Not detected | Not detected | 270 | > 10000 | 2300 | 6900 | – | – | – | – | Ki (rat α4β2 nAChRs [6]): 1.4 nM; Ki (rat α3β4 nAChRs [7]): 16000 nM
18 | CN1CCC[C@H]1COc1cncc(C#CCCCCF)c1 [ZW-110] | 0.95 | 88000 | Not detected | Not detected | – | – | – | – | > 10000 | 60 | > 10000 | > 10000 | –
19 | c1cnc2cc3c(cc2n1)[C@@H]1CNC[C@H]3C1 [varenicline] | – | – | – | – | – | – | – | – | – | – | – | – | nausea, share of clinical trial participants [11]: ~30%
